Experimental data: US8394362B2, “Gem difluorinated C-glycopeptides, their preparation and their use for the preservation of biological materials and/or in cryosugery” (priority 2004, dated 2013)
Like-named read-outs stand apart in the source and are kept apart here.

Experiments:
[1] = tested on: erythrocytes; test: Preservation of erythrocytes: haemolysis at different temperatures; assay type: cell-based, human
Method: The death of erythrocytes can be ascertained by rupture of the plasma membrane. This phenomenon is called haemolysis. Detection of haemolysis is the chief tool used in this experiment to determine the effect of product 15 at different temperatures on the preservation of erythrocytes. Blood sampling→Aliquots→Addition of AAGP (compound 15)→Various temperatures→Observation of haemolysis Product 15 was tested at concentrations of 0 mg/mL, 0.1 mg/mL, 1.0 mg/mL at temperatures of 3, 0, −3, −5, −10, −15, −23, −78° C. From a sample of human blood in a borosilicate heparinized tube, microtubes of 275 μL were filled to full capacity. One third of the microtubes were completed with 2.75 μL of product 15 (10 mg/mL in H2O), and one third of the microtubes were completed with 27.5 μL of product 15 (10 mg/mL in H2O). The blood was divided among the tubes to full capacity to prevent air contact as much as possible. […] The microtubes were frozen on a microtube support and the experiment was conducted using a slow-freeze apparatus at −78° C., whilst thawing was always conducted at room temperature on the microtube rack. After thawing, the microtubes were delicately homogenized by inverting a few times and a sample of erythrocytes was taken. […] Co is the initial Ery count • Cexp is the experimental Ery count Materials

[2] = tested on: H9c2(2-1) cells; assay type: cell-based, rat
[3] = tested on: CCD-27Sk fetal fibroblast skin cells
Text: […] Materials

[4] = tested on: blood platelets; test: Preservation of blood platelets: platelet clustering over 21 days; assay type: cell-based
Method: The purpose is to test product 15 on the preservation of blood platelets to improve current protocols which only allow their preservation for 5 days. The test was conducted at four different temperatures 22° C., 15° C., 4° C. and finally 0° C. Platelet follow-up lasted 21 days to examine platelet clustering. Clustering is one of the first and most definitive indicators of platelet degradation. During their degradation, the platelets become active, lose their morphology, become fibrous, form clusters and finally degenerate. A platelet count is made but the result is rather more based on the extent of clustering.

[5] = tested on: adult primary skin fibroblasts; test: Protection of adult primary skin fibroblasts in culture medium; assay type: cell-based; details: 15 mg/mL, after six days, culture media
Method: This test was extended to adult primary fibroblasts.
For adult fibroblasts, a culture medium (rich in factors) is used,
The concentration of product 15 is 15 mg/mL.

[6] = tested on: H9c2(2-1) cells; assay type: cell-based, rat; remark: listed apart in the source
Method: The test was conducted on rat heart myoblasts to consider application of these compounds for the preservation of organs such as the heart for subsequent transplant.
Another test was conducted on myoblasts at temperatures of 3° C. and −3° C. The purpose of the experiment this time was to increase the concentrations of glycoproteins 15 and 30 equimolar fashion (the molecular weight of the dimer being 2× greater than that of the monomer). The increase in concentration was 2.5 mg/mL for monomer 15 and 5 mg/mL for dimer 30. The temperatures were chosen over a range frequently used for the preservation of cells and tissues. The idea being subsequently to continue this experiment directly on tissues.

[7] = 0.1 mg/mL, 40 min, −78° C. with slow cooling
[8] = 0.1 mg/mL, 2 h, 3, 0, −3, −5 and −10° C.
[9] = 0.1 mg/mL, 4 h, 3, 0, −3, −5 and −10° C.
[10] = 0.1 mg/mL, 9 h, 3, 0, −3, −5 and −10° C.
[11] = 0.1 mg/mL, 24 h, 3, 0, −3, −5 and −10° C.
[12] = 1.0 mg/mL, 40 min, −78° C. with slow cooling
[13] = 1.0 mg/mL, 2 h, 3, 0, −3, −5 and −10° C.
[14] = 1.0 mg/mL, 4 h, 3, 0, −3, −5 and −10° C.
[15] = 1.0 mg/mL, 9 h, 3, 0, −3, −5 and −10° C.
[16] = 1.0 mg/mL, 24 h, 3, 0, −3, −5 and −10° C.

SMILES: C[C@H](NC(=O)[C@H](C)NC(=O)[C@@H](N)CCCCNC(=O)C(F)(F)C1(O)O[C@H](CO)[C@H](O)[C@H](O)[C@H]1O)C(=O)O (stereo partly shown) [product 15]
- % Haemolysis [1, 7]: 36%
- % erythrocytes [1, 7]: 64%
- % Ery [1, 8]: 100%
- % Haemolysis [1, 8]: 0%
- % Ery ([1]; 0.1 mg/mL, 2 h, −15° C.): 73%
- % Haemolysis ([1]; 0.1 mg/mL, 2 h, −15° C.): 27%
- Number of erythrocytes ([1]; 0.1 mg/mL, 2 h, −15° C.): 90
- % Ery [1, 9]: 100%
- % Haemolysis [1, 9]: 0%
- % Ery ([1]; 0.1 mg/mL, 4 h, −15° C.): 0%
- % Haemolysis ([1]; 0.1 mg/mL, 4 h, −15° C.): 100%
- Number of erythrocytes ([1]; 0.1 mg/mL, 4 h, −15° C.): 0
- % Ery [1, 10]: 100%
- % Haemolysis [1, 10]: 0%
- % Ery ([1]; 0.1 mg/mL, 9 h, −15° C.): 0%
- % Haemolysis ([1]; 0.1 mg/mL, 9 h, −15° C.): 100%
- Number of erythrocytes ([1]; 0.1 mg/mL, 9 h, −15° C.): 0
- % Ery [1, 11]: 100%
- % Haemolysis [1, 11]: 0%
- % Haemolysis [1, 12]: 97%
- % erythrocytes [1, 12]: 3%
- % Ery [1, 13]: 100%
- % Haemolysis [1, 13]: 0%
- % Ery ([1]; 1.0 mg/mL, 2 h, −15° C.): 98%
- % Haemolysis ([1]; 1.0 mg/mL, 2 h, −15° C.): 2%
- Number of erythrocytes ([1]; 1.0 mg/mL, 2 h, −15° C.): 120
- % Ery [1, 14]: 100%
- % Haemolysis [1, 14]: 0%
- % Ery ([1]; 1.0 mg/mL, 4 h, −15° C.): 100%
- % Haemolysis ([1]; 1.0 mg/mL, 4 h, −15° C.): 0%
- Number of erythrocytes ([1]; 1.0 mg/mL, 4 h, −15° C.): 133
- % Ery [1, 15]: 100%
- % Haemolysis [1, 15]: 0%
- % Ery ([1]; 1.0 mg/mL, 9 h, −15° C.): 98%
- % Haemolysis ([1]; 1.0 mg/mL, 9 h, −15° C.): 2%
- Number of erythrocytes ([1]; 1.0 mg/mL, 9 h, −15° C.): 121
- % Ery [1, 16]: 100%
- % Haemolysis [1, 16]: 0%
- protection of erythrocytes ([1]; temperature below −15° C., 1.0 mg/mL): no protection is observed
- haemolysis ([1]; temperature range of 2 to −10° C., 0 to 24 hours, with or without product): no haemolysis
- protection of erythrocytes ([1]; −15° C.): really protects the erythrocytes
- protection of erythrocytes ([1]; −15° C., 4 and 9 hours, 1.0 mg/mL): complete protection
- protection of erythrocytes ([1]; −15° C., after two hours, 0.1 mg/mL): partly protects the erythrocytes
- protection of erythrocytes ([1]; −15° C., after two hours, 1.0 mg/mL): completely
- relation of % haemolysis to concentration ([1]; −78° C. slow cooling, freezing point, after 40 minutes): direct correlation is observed between % haemolysis and concentrations of product 15
- number of living cells over incubation time ([2]; 1 mg/mL, −3° C. (FIG. 40)): slow decrease over incubation time in the number of living cells
- dependence of cell survival rate on concentration ([2]; 0.1, 0.5 and 1 mg/mL): better results at 1 mg/mL than at 0.1 and 0.5 mg/mL
- survival percentage over time ([2]; main experiment, 1 mg/mL, 4° C., up to 45 hours): better survival percentage over the entire duration of the experiment
- survival ([2]; main experiment, 1 mg/mL, 22° C., after 45 hours): 65%
- protective effect, monomer versus dimer ([2]; main experiment, 1 mg/mL, after 16 hours, 4° C.): gives the best results
- cell survival compared with control ([2]; main experiment, 1 mg/mL, up to 8 hours, 22, 4, −3 and −10° C.): no significant difference
- survival compared with control ([2]; main experiment, 1 mg/mL, −10° C.): slight improvement
- survival percentage ([2]; preliminary experiment, 2° C. as printed (method −2° C.), 20 hours, 0.1 mg/mL): identical to the control
- preservation of skin fibroblasts, overall ([3]; 5 mg/mL (8.6 mM), 22, 3, −3, −20° C.): better preservation in the presence of product 15 at all temperatures except at −20 °C
- survival rates over time compared with control ([3]; 5 mg/mL, 22° C., 3° C., −3° C. (FIGS. 48 to 50)): much better survival rates
- cell preservation with or without product ([3]; 5 mg/mL, 8 hours (FIG. 44), entire temperature range): no difference is found
- cell survival rate compared with control ([3]; 5 mg/mL, 20 hours (FIG. 46)): better cell survival rate with monomer 15 than with the control
- survival rate ([3]; 5 mg/mL, 20 hours (FIG. 46), −3° C.): 50%
- cell preservation compared with control ([3]; 5 mg/mL, after 12 hours, 22° C. and −3° C.): better preservation
- cell survival compared with control ([3]; 5 mg/mL, after 30 hours (FIG. 47), especially at 3° C.): distinct improvement
- survival ([3]; 5 mg/mL, after 30 hours (FIG. 47), −3° C.): 70%
- cell fate on freezing ([3]; 5 mg/mL, −20° C.): death of the cells after thawing
- survival ([3]; 10 mg/mL, 15° C., after four days, low-serum media): 46%
- cells preserved ([3]; 10 mg/mL, 37° C., after four days, low-serum media): approximately 100%
- cell morphology ([3]; 10 mg/mL, Day 1 (FIG. 55)): preserve a spherical shape and maintain their integrity
- cell survival rate versus concentration ([3]; 3 and −3° C., 20 and 34 hours, up to 15 mg/mL): improves cell survival rate
- protective effect on cells ([3]; 3 and −3° C., concentrations up to 15 mg/mL, after 34 hours): ~100%
- platelet clustering ([4]; 0° C., with or without glycoprotein): no clustering is seen
- platelet clustering ([4]; 4° C., irrespective of concentrations): almost no clustering is observed
- platelet clustering compared with control ([4]; 15° C., over time): a greater increase in clustering is observed in the control than in the samples containing the compound
- time up to which samples do not show any platelet clusters ([4]; 22° C., 1 mg/mL and 4 mg/mL): up to 7 days
- platelet clustering ([4]; 22° C., 4 mg/mL (most concentrated samples)): the least clustering
- platelet clustering compared with control ([4]; 22° C., 13, 17 and 21 days): true inhibition of platelet clustering
- survival ([5]; 3° C.): 100%
- cells protected ([5]; 15° C.): 100%
- survival rate relative to control (control 19%) ([6]; 3° C. (FIG. 42 as printed), after 8 hours, monomer […], dimer 5 mg/mL): more than twice as high
- cells preserved ([6]; after 16 hours, FIGS. 41 and 42, monomer […], dimer 5 mg/mL): approximately 90%
- myoblasts still living ([6]; after 24 hours, FIGS. 41 and 42, monomer […], dimer 5 mg/mL): ~65%
- efficacy versus concentration ([6]; −3° C. (FIG. 43), 1 mg/mL versus 2.5 / 5 mg/mL): greater efficacy at higher concentrations
